Test results as given in publication PMC6409085, “Three odorant-binding proteins are involved in the behavioral response of Sogatella furcifera to rice plant volatiles” (PeerJ, 2019).
Where “and” joins values, the source holds several entries; their conditions need not be identical. Identical values can stand only once.

Assays:
[1] = target: SfurOBP1 (Sogatella furcifera, UniProt V5T8N5); assay: biochemical; format: binding; details: for Fluorescence competitive binding assay, fluorescence intensity: OBP1, three replicate columns
SfurOBP1, sequence (V5T8N5 entry or part of it): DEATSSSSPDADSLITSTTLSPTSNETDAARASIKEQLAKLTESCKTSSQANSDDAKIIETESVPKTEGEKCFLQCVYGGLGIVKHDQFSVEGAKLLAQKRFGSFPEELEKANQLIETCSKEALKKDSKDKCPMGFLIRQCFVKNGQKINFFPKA
Outline: (§1)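 First, 2.0 µM protein in 50 mM Tris-HCl (pH 7.4) was titrated with 1-NPN to obtain K1-NPN. Then odorants (2–20 µM final) competed against 2.0 µM 1-NPN, with fluorescence (ex 337 nm) recorded after 2 min. Ki was computed from IC50 via Ki = IC50/(1 + [1-NPN]/K1-NPN).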

[2] = target: SfurOBP11 (Sogatella furcifera, UniProt V5T6E3); assay: biochemical; format: binding
SfurOBP11, sequence (V5T6E3 entry or part of it): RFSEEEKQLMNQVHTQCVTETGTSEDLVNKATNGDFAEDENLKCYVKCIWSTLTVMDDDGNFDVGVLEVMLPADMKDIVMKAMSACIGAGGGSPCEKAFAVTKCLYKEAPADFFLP
Outline: as §1

[3] = target: SfurOBP2 (Sogatella furcifera, UniProt V5T759); assay: biochemical; format: binding
SfurOBP2, sequence (V5T759 entry or part of it): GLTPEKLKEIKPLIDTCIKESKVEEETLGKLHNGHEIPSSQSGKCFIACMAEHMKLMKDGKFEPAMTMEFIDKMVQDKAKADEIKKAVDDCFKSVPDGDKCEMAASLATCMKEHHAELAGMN
Outline: as §1

[4] = target: SfurOBP3 (Sogatella furcifera, UniProt V5T818); assay: biochemical; format: binding; details: for Fluorescence competitive binding assay, fluorescence intensity: OBP3, three replicate columns
SfurOBP3, sequence (V5T818 entry or part of it): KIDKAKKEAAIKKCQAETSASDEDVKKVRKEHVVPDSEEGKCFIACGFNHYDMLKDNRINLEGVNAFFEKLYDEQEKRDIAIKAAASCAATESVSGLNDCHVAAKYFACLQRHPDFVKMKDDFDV
Outline: as §1

[5] = test system: S. furcifera adults; assay: Y-tube olfactometer behavioral trials; format: in vivo, Sogatella furcifera; details: odorant 50 µL/L vs hexane; adults
Description: To test the effect of the rice odorants on the behavior of S. furcifera adults, a glass Y-tube olfactometer (inner diameter 2.0 cm, stem 13 cm, arms 10 cm, angle of arms 60°) according to the previously described ([Wang et al., 2014b]) was employed. An airtight cubic box (70 by 45 by 30 cm) was used to position Y-tube, and the Y-tube was lighted by a 30-W filament lamp 25 cm above it. Air that filtered through activated charcoal and humidified with doubly distilled water was pumped in both arms at a flow rate of 300 mL/min. Two filter paper strips (10 by 1 cm) containing 100 µL odorant source (50 µL/L) and 100 µL control hexane were placed in two holding chambers in the front of the olfactometer, respectively. A S. furcifera adult (2 days after emergence, starved for 0.5 h) was randomly chosen and placed in the stem of the Y-tube. Each insect was given 10 min to choose between the two arms of the Y-tube, the choice was noted if the planthopper reached one-half of the arms’ lengths and stayed in the arm for more than 1 min. Besides, S. furcifera was considered as having no orientation preference. Forty-five individuals were used for each compound, each insect used only once. And the dual-choice experiment was done in an environmentally controlled room (25 ± 1 °C and 50% RH). A Chi-squared test was used to analyze the behavioral assay data by using SPSS19.0 (SPSS Inc., Chicago, IL, USA) software.

C=CC(C)(O)CCC=C(C)CCC=C(C)C (mixture of isomers) [nerolidol] was tested, and the “Fluorescence competitive binding assay, fluorescence intensity” value ([1]; ligand concentration 2 (μM)) was 6708 and 6744 and 6934, the “Fluorescence competitive binding assay, fluorescence intensity” value ([1]; ligand concentration 4 (μM)) was 6359 and 8427 and 6473 and the “Fluorescence competitive binding assay, fluorescence intensity” value ([1]; ligand concentration 6 (μM)) was 6867 and 6865 and 7375. For the same compound, the “Fluorescence competitive binding assay, fluorescence intensity” value ([1]; ligand concentration 8 (μM)) was 8143 and 7305 and 8959, the “Fluorescence competitive binding assay, fluorescence intensity” value ([1]; ligand concentration 10 (μM)) was 7362 and 11085 and 8523 and the “Fluorescence competitive binding assay, fluorescence intensity” value ([1]; ligand concentration 12 (μM)) was 6544 and 7094 and 6753. The “Fluorescence competitive binding assay, fluorescence intensity” value ([1]; ligand concentration 14 (μM)) was 7135 and 7404 and 8089, the “Fluorescence competitive binding assay, fluorescence intensity” value ([1]; ligand concentration 16 (μM)) was 5378 and 6818 and 6356 and the “Fluorescence competitive binding assay, fluorescence intensity” value ([1]; ligand concentration 18 (μM)) was 6689 and 7935 and 7391. For the same compound, the “Fluorescence competitive binding assay, fluorescence intensity” value ([1]; ligand concentration 20 (μM)) was 6918 and 6511 and 6565, the IC50 ([1]; SfurOBP1, protein and 1-NPN both 2.0 µM, competitor 2-20 µM, read-out: IC50) was greater than 20 µM and the IC50 ([2]; SfurOBP11, protein and 1-NPN both 2.0 µM, competitor 2-20 µM, read-out: IC50) was greater than 20 µM. For the same compound, the “Fluorescence intensity, fluorescence competitive binding assay, OBP11” value (“Fluorescence intensity … OBP11” below) ([2]; ligand concentration 2, replicate 1) was 32108, the “Fluorescence intensity … OBP11” value ([2]; ligand concentration 2, replicate 2) was 31162 and the “Fluorescence intensity … OBP11” value ([2]; ligand concentration 2, replicate 3) was 30215. The “Fluorescence intensity … OBP11” value ([2]; ligand concentration 4, replicate 1) was 28342, the “Fluorescence intensity … OBP11” value ([2]; ligand concentration 4, replicate 2) was 28762 and the “Fluorescence intensity … OBP11” value ([2]; ligand concentration 4, replicate 3) was 29181. For the same compound, the “Fluorescence intensity … OBP11” value ([2]; ligand concentration 6, replicate 1) was 25372, the “Fluorescence intensity … OBP11” value ([2]; ligand concentration 6, replicate 2) was 24386 and the “Fluorescence intensity … OBP11” value ([2]; ligand concentration 6, replicate 3) was 25974. For the same compound, the “Fluorescence intensity … OBP11” value ([2]; ligand concentration 8, replicate 1) was 24916, the “Fluorescence intensity … OBP11” value ([2]; ligand concentration 8, replicate 2) was 25493 and the “Fluorescence intensity … OBP11” value ([2]; ligand concentration 8, replicate 3) was 26070. The “Fluorescence intensity … OBP11” value ([2]; ligand concentration 10, replicate 1) was 22613, the “Fluorescence intensity … OBP11” value ([2]; ligand concentration 10, replicate 2) was 22095 and the “Fluorescence intensity … OBP11” value ([2]; ligand concentration 10, replicate 3) was 23428. The “Fluorescence intensity … OBP11” value ([2]; ligand concentration 12, replicate 1) was 21169, the “Fluorescence intensity … OBP11” value ([2]; ligand concentration 12, replicate 2) was 22102 and the “Fluorescence intensity … OBP11” value ([2]; ligand concentration 12, replicate 3) was 22210. For the same compound, the “Fluorescence intensity … OBP11” value ([2]; ligand concentration 14, replicate 1) was 20351, the “Fluorescence intensity … OBP11” value ([2]; ligand concentration 14, replicate 2) was 23661 and the “Fluorescence intensity … OBP11” value ([2]; ligand concentration 14, replicate 3) was 21671. For the same compound, the “Fluorescence intensity … OBP11” value ([2]; ligand concentration 16, replicate 1) was 17887, the “Fluorescence intensity … OBP11” value ([2]; ligand concentration 16, replicate 2) was 19544 and the “Fluorescence intensity … OBP11” value ([2]; ligand concentration 16, replicate 3) was 17889. For the same compound, the “Fluorescence intensity … OBP11” value ([2]; ligand concentration 18, replicate 1) was 23369, the “Fluorescence intensity … OBP11” value ([2]; ligand concentration 18, replicate 2) was 23675 and the “Fluorescence intensity … OBP11” value ([2]; ligand concentration 18, replicate 3) was 24479. The “Fluorescence intensity … OBP11” value ([2]; ligand concentration 20, replicate 1) was 22182, the “Fluorescence intensity … OBP11” value ([2]; ligand concentration 20, replicate 2) was 24009 and the “Fluorescence intensity … OBP11” value ([2]; ligand concentration 20, replicate 3) was 23801. The IC50 ([3]; SfurOBP2, protein and 1-NPN both 2.0 µM, competitor 2-20 µM, read-out: IC50) was 18.2 µM, the “Fluorescence competitive binding assay, OBP2 (raw fluorescence reading)” value ([3]; ligand concentration 2 (unit not given), replicate column 1 of 3) was 16746 and the “Fluorescence competitive binding assay, OBP2 (raw fluorescence reading)” value ([3]; ligand concentration 2 (unit not given), replicate column 2 of 3) was 14676. The “Fluorescence competitive binding assay, OBP2 (raw fluorescence reading)” value ([3]; ligand concentration 2 (unit not given), replicate column 3 of 3) was 15441, the “Fluorescence competitive binding assay, OBP2 (raw fluorescence reading)” value ([3]; ligand concentration 4 (unit not given), replicate column 1 of 3) was 14875 and the “Fluorescence competitive binding assay, OBP2 (raw fluorescence reading)” value ([3]; ligand concentration 4 (unit not given), replicate column 2 of 3) was 15827. For the same compound, the “Fluorescence competitive binding assay, OBP2 (raw fluorescence reading)” value ([3]; ligand concentration 4 (unit not given), replicate column 3 of 3) was 16107, the “Fluorescence competitive binding assay, OBP2 (raw fluorescence reading)” value ([3]; ligand concentration 6 (unit not given), replicate column 1 of 3) was 14243 and the “Fluorescence competitive binding assay, OBP2 (raw fluorescence reading)” value ([3]; ligand concentration 6 (unit not given), replicate column 2 of 3) was 15150. For the same compound, the “Fluorescence competitive binding assay, OBP2 (raw fluorescence reading)” value ([3]; ligand concentration 6 (unit not given), replicate column 3 of 3) was 15095, the “Fluorescence competitive binding assay, OBP2 (raw fluorescence reading)” value ([3]; ligand concentration 8 (unit not given), replicate column 1 of 3) was 12994 and the “Fluorescence competitive binding assay, OBP2 (raw fluorescence reading)” value ([3]; ligand concentration 8 (unit not given), replicate column 2 of 3) was 13858. The “Fluorescence competitive binding assay, OBP2 (raw fluorescence reading)” value ([3]; ligand concentration 8 (unit not given), replicate column 3 of 3) was 14632, the “Fluorescence competitive binding assay, OBP2 (raw fluorescence reading)” value ([3]; ligand concentration 10 (unit not given), replicate column 1 of 3) was 12524 and the “Fluorescence competitive binding assay, OBP2 (raw fluorescence reading)” value ([3]; ligand concentration 10 (unit not given), replicate column 2 of 3) was 13543. For the same compound, the “Fluorescence competitive binding assay, OBP2 (raw fluorescence reading)” value ([3]; ligand concentration 10 (unit not given), replicate column 3 of 3) was 13950, the “Fluorescence competitive binding assay, OBP2 (raw fluorescence reading)” value ([3]; ligand concentration 12 (unit not given), replicate column 1 of 3) was 11798 and the “Fluorescence competitive binding assay, OBP2 (raw fluorescence reading)” value ([3]; ligand concentration 12 (unit not given), replicate column 2 of 3) was 13085. The “Fluorescence competitive binding assay, OBP2 (raw fluorescence reading)” value ([3]; ligand concentration 12 (unit not given), replicate column 3 of 3) was 12945, the “Fluorescence competitive binding assay, OBP2 (raw fluorescence reading)” value ([3]; ligand concentration 14 (unit not given), replicate column 1 of 3) was 12191 and the “Fluorescence competitive binding assay, OBP2 (raw fluorescence reading)” value ([3]; ligand concentration 14 (unit not given), replicate column 2 of 3) was 12517. For the same compound, the “Fluorescence competitive binding assay, OBP2 (raw fluorescence reading)” value ([3]; ligand concentration 14 (unit not given), replicate column 3 of 3) was 12178, the “Fluorescence competitive binding assay, OBP2 (raw fluorescence reading)” value ([3]; ligand concentration 16 (unit not given), replicate column 1 of 3) was 11027 and the “Fluorescence competitive binding assay, OBP2 (raw fluorescence reading)” value ([3]; ligand concentration 16 (unit not given), replicate column 2 of 3) was 11256. The “Fluorescence competitive binding assay, OBP2 (raw fluorescence reading)” value ([3]; ligand concentration 16 (unit not given), replicate column 3 of 3) was 11449, the “Fluorescence competitive binding assay, OBP2 (raw fluorescence reading)” value ([3]; ligand concentration 18 (unit not given), replicate column 1 of 3) was 11299 and the “Fluorescence competitive binding assay, OBP2 (raw fluorescence reading)” value ([3]; ligand concentration 18 (unit not given), replicate column 2 of 3) was 11344. For the same compound, the “Fluorescence competitive binding assay, OBP2 (raw fluorescence reading)” value ([3]; ligand concentration 18 (unit not given), replicate column 3 of 3) was 11251, the “Fluorescence competitive binding assay, OBP2 (raw fluorescence reading)” value ([3]; ligand concentration 20 (unit not given), replicate column 1 of 3) was 11544 and the “Fluorescence competitive binding assay, OBP2 (raw fluorescence reading)” value ([3]; ligand concentration 20 (unit not given), replicate column 2 of 3) was 11076. For the same compound, the “Fluorescence competitive binding assay, OBP2 (raw fluorescence reading)” value ([3]; ligand concentration 20 (unit not given), replicate column 3 of 3) was 11172, the “Fluorescence competitive binding assay, fluorescence intensity” value ([4]; ligand concentration 2) was 55523 and 54254 and 55950 and the “Fluorescence competitive binding assay, fluorescence intensity” value ([4]; ligand concentration 4) was 52204 and 49599 and 49733. The “Fluorescence competitive binding assay, fluorescence intensity” value ([4]; ligand concentration 6) was 48530 and 49919 and 47140, the “Fluorescence competitive binding assay, fluorescence intensity” value ([4]; ligand concentration 8) was 48179 and 44521 and 46350 and the “Fluorescence competitive binding assay, fluorescence intensity” value ([4]; ligand concentration 10) was 42323 and 44632 and 41414. For the same compound, the “Fluorescence competitive binding assay, fluorescence intensity” value ([4]; ligand concentration 12) was 39705 and 38987 and 37616, the “Fluorescence competitive binding assay, fluorescence intensity” value ([4]; ligand concentration 14) was 34880 and 34317 and 34633 and the “Fluorescence competitive binding assay, fluorescence intensity” value ([4]; ligand concentration 16) was 32423 and 30011 and 29519. The “Fluorescence competitive binding assay, fluorescence intensity” value ([4]; ligand concentration 18) was 30169 and 30976 and 30764, the “Fluorescence competitive binding assay, fluorescence intensity” value ([4]; ligand concentration 20) was 29092 and 31304 and 30368 and the “binding affinity to SfurOBP3 (in words)” value ([4]; SfurOBP3) was “high binding affinities”. The IC50 ([4]; SfurOBP3, protein and 1-NPN both 2.0 µM, competitor 2-20 µM, read-out: IC50) was 19 µM, the “number of insects choosing hexane arm” value [5] was 13 and the “number of insects choosing volatilies arm” value [5] was 15. The “number of insects failed (no choice)” value [5] was 12.
